According to PMC4710668, “Bioactivation of food genotoxicants 5-hydroxymethylfurfural and furfuryl alcohol by sulfotransferases from human, mouse and rat: a comparative study” (Archives of Toxicology, 2014):

Experiments:
mSult5a1 = test: FFA sulfoconjugation assay (N6-MF-A formation with adenosine as scavenger); assay type: biochemical, mouse
Protocol: (§1) Cytosolic fractions containing individual SULT forms were prepared from transgenic S. typhimurium TA1538. Table S1 in the Supplementary Material provides a summary of the thirty SULTs used in the current study together with references describing the cloning of the respective S. typhimurium TA1538 strains. The expressed SULT forms are denoted with the prefixes h, m and r for human, mouse and rat enzymes, respectively. Bacteria were grown in Luria Broth medium containing ampicillin (100 µg/ml) by stirring for 8 h at 200 revolutions/min at 37 °C. The bacterial suspensions were centrifuged at 5,000 g for 10 min. The sediments were washed twice with 25 ml of 10 mM potassium phosphate buffer (pH 7.4)/50 mM potassium chloride (KCP buffer) and centrifuged again. The pellets were taken up in 800 µl KCP buffer and sonicated thrice for 15 s with 30 s pauses in between. The soluble fraction was attained by centrifuging for 1 h at 100,000 g. The supernatants (in the following termed cytosolic preparations) were frozen at −80 °C. The protein concentrations were determined according to a bicinchoninic acid (BCA) assay protocol. The SULT concentrations in the cytosolic preparations were estimated after electrophoretic separation and immunodetection using inclusion bodies of different SULT forms as standards (Teubner et al. [2007]). The preparation of SULT inclusion bodies and the immunodetection of SULTs is described in the Supplementary Material, which also contains a representative immunoblot of different amounts of rSult1a1standard and a cytosolic preparation of S. typhimurium expressing rSult1a1 (Fig. S1).
The reaction mixtures were prepared as described for HMF. In addition, they contained 10 mM adenosine as a nucleophilic scavenger. Following incubation for 20 min at 37 °C, sulfoconjugation reactions were stopped by adding 100 µl cold methanol containing 175 fmol of [^15N5]N ^6-MF-A as the internal standard, mixed and centrifuged at 15,000 g for 10 min. The clear supernatants were subjected to UPLC-MS/MS analyses. Incubations were performed as quadruplicates. At higher concentrations, FFA reacts spontaneously with adenosine at low, but detectable, levels. To correct for the SULT-independent adduct formation, mixtures with SULT-deficient cytosols were carried along simultaneously in duplicate. Controls were subtracted from the experimental samples.
The ribonucleoside adduct N ^6-((furan-2-yl)methyl)-adenosine (N ^6-MF-A) was analyzed by isotope-dilution UPLC-MS/MS with the same system described above using a HSS T3 column (1.8 µm, 2.1 × 100 mm, Waters). Samples of 8 µl were eluted with 10 mM ammonium bicarbonate buffer, pH 8.0 (A) and methanol (B) using an 6-min gradient from 98 % solvent A to 15 % solvent A at 0.35 ml/min flow rate (Yin et al. [2013]). The electrospray interface of the mass spectrometer operated in the positive ion mode. The fragmentations of N ^6-MF-A into the aglycone cation [N ^6-((furan-2-yl)methyl)-adenine-H]^+ (m/z = 348.1 → 216.1), the cleavage of the 2-methylfuranyl cation (m/z = 348.1 → 81.0) and the release of [N ^6-methyl-adenine-H]^+ (m/z = 348.1 → 148.0) were monitored together with the corresponding fragmentations of the isotope-labeled internal standard [^15N5]N ^6-MF-A for the formation of the aglycone (m/z = 353.1 → 221.1), the 2-methylfuran cation (m/z = 353.1 → 81.0) and ^15N5-labeled N ^6-methyl-adenine (m/z = 353.1 → 153.0). The N ^6-MF-A content of the incubation mixture was calculated from the ratio of peak areas resulting from the total ion current of all three MRM signals of the analyte. For the fragmentation of N ^6-MF-A ([^15N5]N ^6-MF-A), collision energies were 20, 25 and 35 eV for the transitions m/z = 348.1 → 216.1 (m/z = 353.1 → 221.1), m/z = 348.1 → 148.0 (m/z = 353.1 → 153.0) and m/z = 348.1 → 81.0 (m/z = 353.1 → 81.0), respectively. […]

rSult1a1 = biological target: T1, rSult1a1 (Rattus norvegicus, UniProt P17988); test: HMF sulfoconjugation assay; assay type: biochemical
T1 construct: made in house; host or cells: Salmonella typhimurium TA1538 (cytosolic fraction, enzyme not purified)
T1 sequence (P17988 whole entry): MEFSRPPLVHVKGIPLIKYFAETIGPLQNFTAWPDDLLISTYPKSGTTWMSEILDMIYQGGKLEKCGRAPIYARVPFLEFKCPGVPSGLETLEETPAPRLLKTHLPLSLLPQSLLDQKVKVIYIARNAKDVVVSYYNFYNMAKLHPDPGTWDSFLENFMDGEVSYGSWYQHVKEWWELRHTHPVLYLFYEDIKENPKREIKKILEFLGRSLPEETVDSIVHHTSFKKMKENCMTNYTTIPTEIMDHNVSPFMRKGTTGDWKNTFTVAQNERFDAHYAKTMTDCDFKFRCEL
Protocol: as §1
The reactions were conducted in mixtures of 100 µl containing 25–200 µg protein, 50 mM potassium phosphate buffer (pH 7.4), 5 mM MgCl2, 50 µM PAPS and different concentrations of HMF at 37 °C. Preliminary experiments ensured that measurements were recorded under ‘linear’ conditions, i.e., doubling of protein concentration or incubation time was doubling the amount of sulfate ester formed. The reactions were stopped after 30 min by adding 300 µl ice-cold 2-propanol, mixed and centrifuged at 15,000 g for 10 min.
SMF concentrations of the clear supernatants were analyzed by UPLC-MS/MS. The protocol was adapted from the quantification of SMF in plasma samples of HMF-treated mice (Monien et al. [2009]). In short, the supernatants were analyzed using a UPLC system (Waters) connected to a Quattro Premier XE tandem quadrupole mass spectrometer (Waters) using the negative electrospray ionization mode. Samples of 4 µl were injected into a HSS T3 column (1.8 µm, 2.1 × 100 mm; Waters) and eluted with an isocratic flow of 0.35 ml/min 10 mM ammonium acetate/methanol (95:5). The fragmentation reactions of SMF yielding two principal ions, the sulfate ion radical (m/z = 204.9 → 96.0) and the protonated sulfonate ion (m/z = 204.9 → 81.0) were monitored. The tune parameters were as follows: temperature of the electrospray source 120 °C; desolvation temperature 475 °C; desolvation gas nitrogen (800 l/h); cone gas nitrogen (100 l/h); collision gas argon (indicated cell pressure ~5 × 10^−3 mbar). For the fragmentation of SMF, collision energies were 20 and 23 eV for the transitions m/z = 204.9 → 81.0 and m/z = 204.9 → 96.0, respectively. The dwell time was set to 100 ms, and capillary voltage was set to 0.35 kV. The cone and RF1 lens voltages were 32 and 0.2 V, respectively. SMF was quantified using an external calibration line that was linear in the concentration range of 1.0 nM (4 fmol/injection) to 2,500 (10 pmol/injection) SMF (r ^2 ≥ 0.99). Data acquisition and handling were performed with MassLynx 4.1 software (Waters). The limit of detection (LOD) for this technique of 2.5 nM SMF has been reported (Monien et al. [2009]). In the current study, this corresponds to 10 fmol SMF per injection or a reaction rate of 0.5 pmol SMF/mg/min.

Row | SMILES | Rate of N6-MF-A formation (mSult5a1; 0.1 mM FFA) | Rate of N6-MF-A formation (mSult5a1; 1 mM FFA) | Rate of N6-MF-A formation (mSult5a1; 10 mM FFA) | Rate of sulfoconjugation (rSult1a1; 0.1 mM HMF) | Rate of sulfoconjugation (rSult1a1; 1 mM HMF) | Rate of sulfoconjugation (rSult1a1; 10 mM HMF) | Rate of sulfoconjugation (rSult1a1; 100 mM HMF) | K M (rSult1a1; HMF sulfoconjugation, Michaelis-Menten fit)
1 | OCc1ccco1 [FFA, furfuryl alcohol] | <18 fmol N ^6-MF-A/mg/min | <20 fmol N ^6-MF-A/mg/min | <44 fmol N ^6-MF-A/mg/min | – | – | – | – | –
2 | O=Cc1ccc(CO)o1 [HMF, 5-Hydroxymethylfurfural] | – | – | – | <0.5 pmol/mg/min | 6.5 ± 2.1 pmol/mg/min | 43.6 ± 13.7 pmol/mg/min | 36.1 ± 16.8 pmol/mg/min | 4.9 ± 0.7 mM
